# Results reported in ChEMBL document CHEMBL5620353, “Novel antifungal triazoles with alkynyl-methoxyl side chains: Design, synthesis, and biological activity evaluation” (Eur J Med Chem, 2023).
# Key:
# Type in all cases: functional
# [1] = test system: Candida tropicalis; assay: Antifungal activity against Candida tropicalis 8915 assessed as inhibition of fungal growth incubated for 48 hrs by microbroth dilution method
# [2] = test system: Pichia kudriavzevii; assay: Antifungal activity against Candida krusei 4996 assessed as inhibition of fungal growth incubated for 48 hrs by microbroth dilution method
# [3] = test system: Candida albicans; assay: Antifungal activity against Candida albicans SC5314 assessed as inhibition of fungal growth incubated for 48 hrs by microbroth dilution method
# [4] = test system: Nakaseomyces glabratus; assay: Potency index, ratio of fluconazole MIC to test compound MIC for antifungal activity against Candida glabrata 537 assessed as inhibition of fungal growth incubated for 48 hrs by microbroth dilution method
# [5] = test system: Aspergillus fumigatus; assay: Antifungal activity against Aspergillus fumigatus 7544 assessed as inhibition of fungal growth incubated for 72 hrs by microbroth dilution method
# [6] = test system: Nakaseomyces glabratus; assay: Antifungal activity against Candida glabrata 537 assessed as inhibition of fungal growth incubated for 48 hrs by microbroth dilution method
# [7] = test system: Candida albicans; assay: Antifungal activity against Candida albicans 10231 assessed as inhibition of fungal growth incubated for 48 hrs by microbroth dilution method
# [8] = test system: Candida parapsilosis; assay: Antifungal activity against Candida parapsilosis 22019 assessed as inhibition of fungal growth incubated for 48 hrs by microbroth dilution method; settings: Lodderomyces parapsilosis
# [9] = test system: Cryptococcus neoformans; assay: Antifungal activity against Cryptococcus neoformans 32,609 assessed as inhibition of fungal growth incubated for 72 hrs by microbroth dilution method
# [10] = test system: [Candida] auris; assay: Antifungal activity against fluconazole-resistant Candida auris 919 assessed as inhibition of fungal growth incubated for 48 hrs by microbroth dilution method; settings: Candidozyma auris
# [11] = test system: [Candida] auris; assay: Antifungal activity against fluconazole-resistant Candida auris 918 assessed as inhibition of fungal growth incubated for 48 hrs by microbroth dilution method; settings: Candidozyma auris
# [12] = test system: Candida albicans; assay: Antifungal activity against fluconazole-resistant Candida albicans 904 assessed as inhibition of fungal growth incubated for 48 hrs by microbroth dilution method
# [13] = test system: Candida albicans; assay: Antifungal activity against fluconazole-resistant Candida albicans 901 assessed as inhibition of fungal growth incubated for 48 hrs by microbroth dilution method
# [14] = test system: [Candida] auris; assay: Antifungal activity against fluconazole-resistant Candida auris 891 assessed as inhibition of fungal growth incubated for 48 hrs by microbroth dilution method; settings: Candidozyma auris
SMILES,MIC [1] [µg/mL],MIC [2] [µg/mL],MIC [3] [µg/mL],Ratio [4],MIC [5] [µg/mL],MIC [6] [µg/mL],MIC [7] [µg/mL],MIC [8] [µg/mL],MIC [9] [µg/mL],MIC [10] [µg/mL],MIC [11] [µg/mL],MIC [12] [µg/mL],MIC [13] [µg/mL],MIC [14] [µg/mL]
C[C@@H](OCC#Cc1cccnc1)[C@](O)(Cn1cncn1)c1ccc(F)cc1F,64,4,≤ 0.125,>=8,4,≤ 0.125,32,≤ 0.125,≤ 0.125,–,–,–,–,–
C[C@@H](OCC#Cc1ccccn1)[C@](O)(Cn1cncn1)c1ccc(F)cc1F,> 64,16,≤ 0.125,>=8,8,≤ 0.125,32,0.5,0.5,–,–,–,–,–
C[C@@H](OCC#Cc1cccc(Cl)c1)[C@](O)(Cn1cncn1)c1ccc(F)cc1F,32,32,0.5,–,2,0.5,32,2,2,–,–,–,–,–
C[C@@H](OCC#Cc1cc(F)ccc1F)[C@](O)(Cn1cncn1)c1ccc(F)cc1F,8,8,≤ 0.125,>=8,2,≤ 0.125,8,2,1,–,–,–,–,–
C[C@@H](OCC#Cc1ccccc1Cl)[C@](O)(Cn1cncn1)c1ccc(F)cc1F,64,8,0.25,–,4,0.25,16,1,2,–,–,–,–,–
C[C@@H](OCC#Cc1c(Cl)cc(Cl)cc1Cl)[C@](O)(Cn1cncn1)c1ccc(F)cc1F,64,16,1,>=8,2,≤ 0.125,> 64,2,0.5,–,–,–,–,–
C[C@@H](OCC#Cc1ccc(OC(F)(F)F)cc1)[C@](O)(Cn1cncn1)c1ccc(F)cc1F,32,64,4,–,8,2,32,16,4,–,–,–,–,–
C[C@@H](OCC#Cc1c(Cl)cccc1Cl)[C@](O)(Cn1cncn1)c1ccc(F)cc1F,> 64,16,0.25,–,4,0.25,> 64,4,≤ 0.125,–,–,–,–,–
C[C@@H](OCC#Cc1ccccc1F)[C@](O)(Cn1cncn1)c1ccc(F)cc1F,64,8,≤ 0.125,>=8,4,≤ 0.125,8,2,0.5,–,–,–,–,–
C[C@@H](OCC#Cc1c(F)cccc1F)[C@](O)(Cn1cncn1)c1ccc(F)cc1F,64,4,≤ 0.125,–,1,0.25,16,0.5,≤ 0.125,–,–,–,–,–
C[C@@H](OCC#Cc1ccc(C(F)(F)F)cc1)[C@](O)(Cn1cncn1)c1ccc(F)cc1F,64,64,4,–,16,1,32,16,8,–,–,–,–,–
Cc1ccc(C#CCO[C@H](C)[C@](O)(Cn2cncn2)c2ccc(F)cc2F)cc1,16,32,≤ 0.125,>=8,4,≤ 0.125,16,4,2,–,–,–,–,–
C[C@@H](OCC#Cc1cccc(Cl)c1Cl)[C@](O)(Cn1cncn1)c1ccc(F)cc1F,32,64,≤ 0.125,–,4,1,32,8,4,–,–,–,–,–
C[C@@H](OCC#Cc1c(F)cc(F)cc1F)[C@](O)(Cn1cncn1)c1ccc(F)cc1F,64,8,≤ 0.125,>=8,4,≤ 0.125,> 64,2,0.5,–,–,–,–,–
C[C@@H](OCC#Cc1cccc(F)c1F)[C@](O)(Cn1cncn1)c1ccc(F)cc1F,32,8,≤ 0.125,>=8,8,≤ 0.125,16,1,1,–,–,–,–,–
Cc1ccccc1C#CCO[C@H](C)[C@](O)(Cn1cncn1)c1ccc(F)cc1F,32,16,0.25,–,4,0.25,8,4,1,–,–,–,–,–
C[C@@H](OCC#Cc1cc(Cl)ccc1Cl)[C@](O)(Cn1cncn1)c1ccc(F)cc1F,> 64,32,0.25,>=8,16,≤ 0.125,> 64,4,2,–,–,–,–,–
Cc1cccc(C#CCO[C@H](C)[C@](O)(Cn2cncn2)c2ccc(F)cc2F)c1,64,32,0.5,–,1,0.25,8,0.5,4,–,–,–,–,–
C[C@@H](OCC#Cc1ccccc1)[C@](O)(Cn1cncn1)c1ccc(F)cc1F,32,8,≤ 0.125,>=8,4,≤ 0.125,8,0.5,0.5,–,–,–,–,–
C[C@@H](OCC#Cc1cccc(F)c1)[C@](O)(Cn1cncn1)c1ccc(F)cc1F,32,16,≤ 0.125,>=8,1,≤ 0.125,16,1,1,–,–,–,–,–
COc1ccc(C#CCO[C@H](C)[C@](O)(Cn2cncn2)c2ccc(F)cc2F)cc1,16,32,≤ 0.125,–,4,0.25,16,4,2,–,–,–,–,–
C[C@@H](OCC#Cc1ccc(Cl)cc1Cl)[C@](O)(Cn1cncn1)c1ccc(F)cc1F,32,32,≤ 0.125,–,4,0.25,32,4,2,8,16,32,64,32
